Measured values taken from patent publication US7812017B2, “4-substituted indole and indoline compounds” (Biovitrum AB (publ.), priority 2006, dated 2010).
Counter-ions that a name gives are not always drawn.

What was measured:
[1] = target: T1, human 5-HT6 receptor (Homo sapiens, UniProt P50406); assay: biochemical
[2] = target: T1, human 5-HT6 receptor; assay: 5-HT6 receptor binding assay ([3H]-LSD, SPA, membranes of transfected HEK293 cells); conditions: over three experiments

T1 sequence (P50406 whole entry): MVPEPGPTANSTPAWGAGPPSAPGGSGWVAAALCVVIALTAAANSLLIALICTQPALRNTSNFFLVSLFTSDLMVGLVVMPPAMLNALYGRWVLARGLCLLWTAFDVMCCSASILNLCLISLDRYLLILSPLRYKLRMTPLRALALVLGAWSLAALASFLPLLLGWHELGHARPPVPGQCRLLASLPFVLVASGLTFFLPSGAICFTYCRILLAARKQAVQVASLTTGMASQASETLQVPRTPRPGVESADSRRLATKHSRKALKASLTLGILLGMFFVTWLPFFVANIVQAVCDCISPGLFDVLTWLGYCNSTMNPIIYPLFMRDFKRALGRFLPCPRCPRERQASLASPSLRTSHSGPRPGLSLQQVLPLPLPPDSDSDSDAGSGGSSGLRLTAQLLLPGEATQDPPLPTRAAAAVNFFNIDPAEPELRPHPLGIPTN

SMILES | Ki [1] [nM] | Hill coefficient [2]
O=S(=O)(c1ccccc1)n1ccc2c(CN3CCNCC3)cccc21 [Example 1, 1-(Phenylsulfonyl)-4-(piperazin-1-ylmethyl)-1H-indole hydrochloride] | 1.8 | –
NCCc1c[nH]c2ccc(O)cc12 [Example 5-HT, 5-hydroxytryptamine] | – | 0.94 (SD 0.09)
CN(C)Cc1cccc2c1ccn2S(=O)(=O)c1ccccc1 [Example 47, N,N-Dimethyl-1-[1-(phenylsulfonyl)-1H-indol-4-yl]methanamine trifluoroacetate] | 3.3 | –
O=S(=O)(c1ccccc1)n1ccc2c(CN3CCC3)cccc21 [Example 87, 4-Azetidin-1-ylmethyl)-1-(phenylsulfonyl)-1H-indole trifluoroacetate] | 0.9 | –
